What was measured:
Assay type in all cases: functional
[1] = system: Rattus norvegicus; test: Anti-inflammatory activity in Wistar rat assessed as reduction in carrageenan induced paw edema by measuring paw volume as ml of Hg at 100 mg/kg, po administered 30 mins before carrageenan challenge measured 1 hr post carrageenan challenge (reference value: 0.36 +/- 0.3 ml of Hg)
[2] = system: Rattus norvegicus; test: Anti-inflammatory activity in Wistar rat assessed as reduction in carrageenan induced paw edema by measuring paw volume as ml of Hg at 100 mg/kg, po administered 30 mins before carrageenan challenge measured 2 hrs post carrageenan challenge (reference value: 0.36 +/- 0.3 ml of Hg)
[3] = system: Rattus norvegicus; test: Anti-inflammatory activity in Wistar rat assessed as reduction in carrageenan induced paw edema by measuring paw volume as ml of Hg at 100 mg/kg, po administered 30 mins before carrageenan challenge measured 4 hrs post carrageenan challenge (reference value: 0.36 +/- 0.3 ml of Hg)
[4] = system: Rattus norvegicus; test: Anti-inflammatory activity in Wistar rat assessed as reduction in carrageenan induced paw edema by measuring paw volume as ml of Hg at 100 mg/kg, po administered 30 mins before carrageenan challenge measured 6 hrs post carrageenan challenge (reference value: 0.36 +/- 0.3 ml of Hg)

SMILES	Activity [1]	Activity [2]	Activity [3]	Activity [4]
Cc1noc2c(C(=O)c3ccccc3)noc12	0.8 mL	0.86 mL	0.82 mL	0.63 mL
Cc1noc2c(C(=O)c3ccccc3[N+](=O)[O-])noc12	0.75 mL	0.83 mL	0.81 mL	0.63 mL
Cc1noc2c(C(=O)c3ccccc3O)noc12	0.82 mL	0.93 mL	0.8 mL	0.61 mL
COc1ccc(C(=O)c2noc3c(C)noc23)cc1	0.78 mL	0.7 mL	0.83 mL	0.62 mL
Cc1noc2c(C(=O)c3ccccc3Cl)noc12	0.51 mL	0.68 mL	0.51 mL	0.5 mL
Cc1noc2c(C(=O)c3ccc(N(C)C)cc3)noc12	0.78 mL	0.83 mL	0.63 mL	0.55 mL
Cc1noc2c(C(=O)c3ccccc3Br)noc12	0.5 mL	0.68 mL	0.65 mL	0.51 mL
Cc1noc2c(C(=O)c3ccc(Cl)cc3)noc12	0.53 mL	0.65 mL	0.67 mL	0.41 mL
Cc1noc2c(C(=O)c3ccc(Br)cc3)noc12	0.52 mL	0.69 mL	0.54 mL	0.32 mL
